Measured values from ChEMBL document CHEMBL1201862, “PubChem BioAssay data set” (2004).
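Cultured in 96-well plates, cells were exposed to test compound for 48 hours across five concentrations. The concentration for 50% growth inhibition is given as GI50.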 Activity calls are given as the source filed them. No stated cut-off is given here; in the data, active = GI50 up to about 1.1 µM and inactive = higher.

Experiments:
Assay in all cases: NCI anticancer screen, dose series, 48 h
NCI-H23 = system: NCI-H23
M19-MEL = system: M19-MEL
OVCAR-8 = system: OVCAR-8
RXF 393 = system: RXF 393
A498 = system: A498
SW-620 = system: SW-620
CCRF-CEM = system: CCRF-CEM
DMS-114 = system: DMS-114
SF-539 = system: SF-539
SF-295 = system: SF-295
SN12C = system: SN12C
IGROV-1 = system: IGROV-1
SNB-75 = system: SNB-75
EKVX = system: EKVX
HT-29 = system: HT-29
HL-60 = system: HL-60
SNB-78 = system: SNB-78
A549 = system: A549
SK-MEL-2 = system: SK-MEL-2
SK-MEL-5 = system: SK-MEL-5
OVCAR-4 = system: OVCAR-4
SNB-19 = system: SNB-19
HCC 2998 = system: HCC 2998
Malme-3M = system: Malme-3M
DMS-273 = system: DMS-273
ACHN = system: ACHN
NCI-H522 = system: NCI-H522
COLO 205 = system: COLO 205
M14 = system: M14
OVCAR-5 = system: OVCAR-5
SR = system: SR
XF498 = system: XF498
UACC-257 = system: UACC-257
TK-10 = system: TK-10
NCI-H460 = system: NCI-H460
HCT-116 = system: HCT-116
HCT-15 = system: HCT-15
OVCAR-3 = system: OVCAR-3
MOLT-4 = system: MOLT-4
SK-MEL-28 = system: SK-MEL-28
HOP-62 = system: HOP-62
LOX IMVI = system: LOX IMVI
SF-268 = system: SF-268
U-251 = system: U-251
RPMI-8226 = system: RPMI-8226
RXF 631 = system: RXF 631
DLD-1 = system: DLD-1
KM-20L2 = system: KM-20L2
UACC-62 = system: UACC-62
LXFL 529 = system: LXFL 529
HOP-18 = system: HOP-18
786-0 = system: 786-0
KM12 = system: KM12
NCI-H226 = system: NCI-H226
K562 = system: K562
CAKI-1 = system: CAKI-1
SK-OV-3 = system: SK-OV-3
UO-31 = system: UO-31
HOP-92 = system: HOP-92

## COC(=O)/C(=N\NC(N)=S)C(C(=O)OC)C(=O)C(=O)Nc1ccc(C)cc1 (configuration not stated)
NCI-H23
  GI50: > 100 µM (inactive)
M19-MEL
  GI50: > 100 µM (inactive)
OVCAR-8
  GI50: > 100 µM (inactive)
RXF 393
  GI50: > 100 µM (inactive)
A498
  GI50: > 100 µM (inactive)
SW-620
  GI50: > 100 µM (inactive)
CCRF-CEM
  GI50: > 100 µM (inactive)
DMS-114
  GI50: > 100 µM (inactive)
SF-539
  GI50: > 100 µM (inactive)
SF-295
  GI50: > 100 µM (inactive)
SN12C
  GI50: > 100 µM (inactive)
IGROV-1
  GI50: > 100 µM (inactive)
SNB-75
  GI50: 41.9 µM (inactive)
EKVX
  GI50: > 100 µM (inactive)
HT-29
  GI50: > 100 µM (inactive)
HL-60
  GI50: > 100 µM (inactive)
SNB-78
  GI50: > 100 µM (inactive)
A549
  GI50: > 100 µM (inactive)
SK-MEL-2
  GI50: > 100 µM (inactive)
SK-MEL-5
  GI50: > 100 µM (inactive)
OVCAR-4
  GI50: > 100 µM (inactive)
SNB-19
  GI50: > 100 µM (inactive)
HCC 2998
  GI50: > 100 µM (inactive)
Malme-3M
  GI50: > 100 µM (inactive)
DMS-273
  GI50: > 100 µM (inactive)
ACHN
  GI50: > 100 µM (inactive)
NCI-H522
  GI50: > 100 µM (inactive)
COLO 205
  GI50: > 100 µM (inactive)
M14
  GI50: > 100 µM (inactive)
OVCAR-5
  GI50: > 100 µM (inactive)
SR
  GI50: > 100 µM (inactive)
XF498
  GI50: > 100 µM (inactive)
UACC-257
  GI50: > 100 µM (inactive)
TK-10
  GI50: > 100 µM (inactive)
NCI-H460
  GI50: > 100 µM (inactive)
HCT-116
  GI50: > 100 µM (inactive)
HCT-15
  GI50: > 100 µM
OVCAR-3
  GI50: > 100 µM (inactive)
MOLT-4
  GI50: > 100 µM (inactive)
SK-MEL-28
  GI50: > 100 µM (inactive)
HOP-62
  GI50: > 100 µM (inactive)
LOX IMVI
  GI50: > 100 µM (inactive)
SF-268
  GI50: > 100 µM (inactive)
U-251
  GI50: > 100 µM (inactive)
RPMI-8226
  GI50: > 100 µM (inactive)
RXF 631
  GI50: > 100 µM (inactive)
DLD-1
  GI50: > 100 µM (inactive)
KM-20L2
  GI50: > 100 µM (inactive)
UACC-62
  GI50: > 100 µM (inactive)
LXFL 529
  GI50: > 100 µM (inactive)
HOP-18
  GI50: > 100 µM (inactive)
786-0
  GI50: > 100 µM (inactive)
KM12
  GI50: > 100 µM (inactive)
NCI-H226
  GI50: > 100 µM (inactive)
K562
  GI50: > 100 µM (inactive)
CAKI-1
  GI50: > 100 µM (inactive)
SK-OV-3
  GI50: > 100 µM (inactive)
UO-31
  GI50: > 100 µM (inactive)

## O=c1[nH]nc2ccccc2c1Cl
NCI-H23
  GI50: 15.1 µM (inactive)
M19-MEL
  GI50: 6.92 µM (inactive)
OVCAR-8
  GI50: 21.2 µM (inactive)
A498
  GI50: 17.5 µM (inactive)
SW-620
  GI50: 13.8 µM (inactive)
CCRF-CEM
  GI50: 6.14 µM (inactive)
DMS-114
  GI50: 4.89 µM (inactive)
SF-539
  GI50: 15.6 µM (inactive)
SF-295
  GI50: 20.5 µM (inactive)
SN12C
  GI50: 17.6 µM (inactive)
IGROV-1
  GI50: 12.6 µM (inactive)
SNB-75
  GI50: 10.7 µM (inactive)
EKVX
  GI50: 4.29 µM (inactive)
HT-29
  GI50: 6.68 µM (inactive)
SNB-78
  GI50: 13.3 µM (inactive)
A549
  GI50: 29.3 µM (inactive)
SK-MEL-2
  GI50: 17.3 µM (inactive)
SK-MEL-5
  GI50: > 10 µM (inactive)
HOP-92
  GI50: 3.08 µM (inactive)
OVCAR-4
  GI50: 11.2 µM (inactive)
SNB-19
  GI50: 16.1 µM (inactive)
HCC 2998
  GI50: 1.52 µM (inactive)
Malme-3M
  GI50: 16.2 µM (inactive)
DMS-273
  GI50: 16.3 µM (inactive)
ACHN
  GI50: 16.3 µM (inactive)
COLO 205
  GI50: 11.4 µM (inactive)
M14
  GI50: 12.3 µM (inactive)
OVCAR-5
  GI50: 18.3 µM (inactive)
XF498
  GI50: 14.5 µM (inactive)
UACC-257
  GI50: 10.2 µM (inactive)
TK-10
  GI50: 18 µM (inactive)
NCI-H460
  GI50: 18.5 µM (inactive)
HCT-116
  GI50: 16.3 µM (inactive)
HCT-15
  GI50: 6.41 µM
OVCAR-3
  GI50: 2.65 µM (inactive)
MOLT-4
  GI50: 14 µM (inactive)
SK-MEL-28
  GI50: > 10 µM (inactive)
HOP-62
  GI50: 21 µM (inactive)
LOX IMVI
  GI50: 17.6 µM (inactive)
SF-268
  GI50: 17.8 µM (inactive)
U-251
  GI50: 15.8 µM (inactive)
RPMI-8226
  GI50: 3.13 µM (inactive)
RXF 631
  GI50: 12.9 µM (inactive)
DLD-1
  GI50: 10.4 µM (inactive)
KM-20L2
  GI50: 14.6 µM (inactive)
UACC-62
  GI50: 12.8 µM (inactive)
HOP-18
  GI50: 15.7 µM (inactive)
786-0
  GI50: 14.6 µM (inactive)
KM12
  GI50: 9.44 µM (inactive)
NCI-H226
  GI50: 24.6 µM (inactive)
K562
  GI50: 4.24 µM (inactive)
CAKI-1
  GI50: 3.18 µM (inactive)
SK-OV-3
  GI50: 17.7 µM (inactive)
UO-31
  GI50: 15 µM (inactive)

## Clc1ccccc1C1=NN(c2ccccc2)C2c3ccccc3OCC12 (configuration not stated)
NCI-H23
  GI50: > 100 µM (inactive)
M19-MEL
  GI50: > 100 µM (inactive)
OVCAR-8
  GI50: > 100 µM (inactive)
RXF 393
  GI50: > 100 µM (inactive)
A498
  GI50: > 100 µM (inactive)
SW-620
  GI50: > 100 µM (inactive)
CCRF-CEM
  GI50: 64.9 µM (inactive)
DMS-114
  GI50: > 100 µM (inactive)
SF-295
  GI50: 79.6 µM (inactive)
IGROV-1
  GI50: > 100 µM (inactive)
SNB-75
  GI50: > 100 µM (inactive)
EKVX
  GI50: > 100 µM (inactive)
HT-29
  GI50: 58.5 µM (inactive)
HL-60
  GI50: 41.6 µM (inactive)
SNB-78
  GI50: > 100 µM (inactive)
A549
  GI50: > 100 µM (inactive)
SK-MEL-2
  GI50: > 100 µM (inactive)
SK-MEL-5
  GI50: 79.6 µM (inactive)
HOP-92
  GI50: 39.6 µM (inactive)
SNB-19
  GI50: > 100 µM (inactive)
HCC 2998
  GI50: > 100 µM (inactive)
Malme-3M
  GI50: > 100 µM (inactive)
DMS-273
  GI50: 83.8 µM (inactive)
ACHN
  GI50: > 100 µM (inactive)
NCI-H522
  GI50: > 100 µM (inactive)
COLO 205
  GI50: > 100 µM (inactive)
OVCAR-5
  GI50: > 100 µM (inactive)
XF498
  GI50: > 100 µM (inactive)
UACC-257
  GI50: 79.3 µM (inactive)
TK-10
  GI50: > 100 µM (inactive)
NCI-H460
  GI50: > 100 µM (inactive)
HCT-116
  GI50: 43.3 µM (inactive)
OVCAR-3
  GI50: > 100 µM (inactive)
MOLT-4
  GI50: 57.8 µM (inactive)
SK-MEL-28
  GI50: > 100 µM (inactive)
HOP-62
  GI50: > 100 µM (inactive)
LOX IMVI
  GI50: 88.1 µM (inactive)
SF-268
  GI50: > 100 µM (inactive)
U-251
  GI50: > 100 µM (inactive)
RPMI-8226
  GI50: 34.1 µM (inactive)
RXF 631
  GI50: > 100 µM (inactive)
DLD-1
  GI50: > 100 µM (inactive)
KM-20L2
  GI50: 73.3 µM (inactive)
LXFL 529
  GI50: 66.7 µM (inactive)
HOP-18
  GI50: 27.8 µM (inactive)
786-0
  GI50: 74.5 µM (inactive)
KM12
  GI50: > 100 µM (inactive)
K562
  GI50: 44.3 µM (inactive)
SK-OV-3
  GI50: > 100 µM (inactive)
UO-31
  GI50: > 100 µM (inactive)
